Literature values as cited in patent publication US9427419B2, “Compositions comprising dimethyl sulfoxide (DMSO)” (Abela Pharmaceuticals, Inc., priority 2005, dated 2016).

Key:
[1] = doses of 250 mg/Kg
cerebral blood flow = settings: variety of brain injuries including stroke and head trauma, animals and humans
[2] = after oral administration
[3] = test system: cerebral blood flow, contused brain; settings: mice, after experimental traumatic injury
[4] = test system: asymmetric dimethylarginine (ADMA); settings: continuous intravenous infusion for 120 minutes at 0.125 g/min, angina pectoris
endothelin-1 = settings: continuous intravenous infusion for 120 minutes at 0.125 g/min, angina pectoris
[5] = higher doses, from 15 to 30 grams daily

## N[C@@H](CC(=O)O)C(=O)O [L-aspartate]
[1]
  adverse effects: without adverse effects

## C[S+](C)[O-] [DMSO, dimethyl sulfoxide]
Cerebral blood flow
  cerebral blood flow (CBF): increase CBF
Hippocampal neurons
  excitotoxic death of the neurons induced by glutamate: can prevent excitotoxic death
Hippocampal neurons; DMSO concentrations 0.5-[…]
  glutamate responses in hippocampal neurons: inhibit glutamate responses
Hippocampal neurons; rapidly reversible manner
  electrophysiological responses and calcium influx induced by glutamate, NMDA and AMPA: suppresses

## NCCCC[C@H](N)C(=O)O [L-lysine]
[1]
  adverse effects: without adverse effects

## N=C(N)NCCC[C@H](N)C(=O)O [L-arginine]
[2]
  time of peak plasma levels: 1 to 2 h
[3]
  cerebral blood flow (CBF) post-injury: increased CBF post-injury
  contusion volume: reduction in contusion volume
[4]
  serum levels of asymmetric dimethylarginine (ADMA): lowered the serum levels of asymmetric dimethylarginine (ADMA)
endothelin-1
  levels of endothelin-1: reduce the levels of endothelin-1
[5]
  most common adverse reactions: nausea, abdominal cramps and diarrhea
